Calls of active or inactive are those of the source.
Experiments:
[1] = biological target: DNA dC->dU-editing enzyme APOBEC-3G (Homo sapiens, UniProt Q9HC16); format: functional;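 also: Dose-response counterscreen measuring inhibition of APOBEC3G DNA deaminase activity, run while confirming APOBEC3A inhibitors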
[2] = biological target: DNA dC->dU-editing enzyme APOBEC-3A (Homo sapiens, UniProt P31941); test: Dose Response confirmation of small molecule APOBEC3A DNA Deaminase Inhibitors via a fluorescence-based single-stranded DNA deaminase assay. [Related pubchem assays (depositor defined):AID493011, AID493024]; format: functional
DNA dC->dU-editing enzyme APOBEC-3A, sequence (P31941 whole entry): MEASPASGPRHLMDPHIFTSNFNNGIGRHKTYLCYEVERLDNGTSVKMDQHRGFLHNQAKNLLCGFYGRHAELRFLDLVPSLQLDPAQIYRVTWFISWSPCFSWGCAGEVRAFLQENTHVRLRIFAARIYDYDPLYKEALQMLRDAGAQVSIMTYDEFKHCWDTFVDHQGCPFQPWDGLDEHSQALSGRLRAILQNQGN

[3] = biological target: T1, Zinc finger protein mex-5 (Caenorhabditis elegans, UniProt Q9XUB2); test: MEX-5/TCR-2 RNA interaction inhibitors, dose response, biochemical, C. elegans, fluorescence polarization (AID 1960)
T1 sequence (Q9XUB2 whole entry): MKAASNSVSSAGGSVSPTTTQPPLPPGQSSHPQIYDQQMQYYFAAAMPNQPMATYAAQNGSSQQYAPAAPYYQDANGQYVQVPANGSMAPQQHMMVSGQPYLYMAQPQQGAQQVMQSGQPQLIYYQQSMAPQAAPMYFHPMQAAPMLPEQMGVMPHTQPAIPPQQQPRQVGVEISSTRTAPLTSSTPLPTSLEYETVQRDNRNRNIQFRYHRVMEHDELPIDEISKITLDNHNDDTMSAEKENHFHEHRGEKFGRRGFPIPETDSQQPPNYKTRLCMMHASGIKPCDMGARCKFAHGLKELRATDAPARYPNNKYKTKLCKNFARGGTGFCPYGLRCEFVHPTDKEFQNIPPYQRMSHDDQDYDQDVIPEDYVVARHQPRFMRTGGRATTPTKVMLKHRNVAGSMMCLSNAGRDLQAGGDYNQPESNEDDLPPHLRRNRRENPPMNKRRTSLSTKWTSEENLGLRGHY

[4] = biological target: G-protein coupled receptor 55 (Homo sapiens, UniProt Q9Y2T6); test: GPR55 antagonists blocking LPI-driven arrestin recruitment, primary screen, imaging, U2OS, beta-arrestin-GFP, LPI agonist (AID 2013); format: functional;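 also: antagonist potency measured as reduced agonist-driven arrestin aggregation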
G-protein coupled receptor 55, sequence (Q9Y2T6 whole entry, the tested form may be a part): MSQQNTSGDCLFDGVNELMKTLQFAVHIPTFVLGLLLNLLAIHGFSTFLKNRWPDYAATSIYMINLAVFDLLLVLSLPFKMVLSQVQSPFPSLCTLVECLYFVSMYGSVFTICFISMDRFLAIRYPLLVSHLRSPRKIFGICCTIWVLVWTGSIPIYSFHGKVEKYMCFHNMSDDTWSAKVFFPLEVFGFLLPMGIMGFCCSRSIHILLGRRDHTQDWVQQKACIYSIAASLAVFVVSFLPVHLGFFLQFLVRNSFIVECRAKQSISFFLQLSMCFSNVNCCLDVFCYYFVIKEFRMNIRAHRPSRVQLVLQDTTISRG

[5] = biological target: T2, RNA-binding protein pos-1 (Caenorhabditis elegans, UniProt G5EF15); test: inhibitors of POS-1/mex-3 RNA binding, dose response, biochemical, fluorescence polarization (AID 1964);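 also: purified POS-1 fused to maltose binding protein made in E. coli; potency of compounds blocking POS-1 binding to fluorescent RNA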
T2 sequence (G5EF15 whole entry): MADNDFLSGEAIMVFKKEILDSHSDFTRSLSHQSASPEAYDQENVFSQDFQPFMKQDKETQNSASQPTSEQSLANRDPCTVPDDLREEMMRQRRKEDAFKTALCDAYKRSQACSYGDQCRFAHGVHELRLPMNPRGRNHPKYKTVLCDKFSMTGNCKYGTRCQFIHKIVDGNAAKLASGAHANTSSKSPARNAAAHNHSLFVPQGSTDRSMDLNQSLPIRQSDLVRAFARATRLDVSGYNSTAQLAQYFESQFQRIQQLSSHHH

[6] = biological target: T3, Nucleotide-binding oligomerization domain-containing protein 1 (Homo sapiens, UniProt Q9Y239); test: NOD1 signaling inhibitors, SAR follow-up, revised (AID 2333); format: functional
T3 sequence (Q9Y239 whole entry): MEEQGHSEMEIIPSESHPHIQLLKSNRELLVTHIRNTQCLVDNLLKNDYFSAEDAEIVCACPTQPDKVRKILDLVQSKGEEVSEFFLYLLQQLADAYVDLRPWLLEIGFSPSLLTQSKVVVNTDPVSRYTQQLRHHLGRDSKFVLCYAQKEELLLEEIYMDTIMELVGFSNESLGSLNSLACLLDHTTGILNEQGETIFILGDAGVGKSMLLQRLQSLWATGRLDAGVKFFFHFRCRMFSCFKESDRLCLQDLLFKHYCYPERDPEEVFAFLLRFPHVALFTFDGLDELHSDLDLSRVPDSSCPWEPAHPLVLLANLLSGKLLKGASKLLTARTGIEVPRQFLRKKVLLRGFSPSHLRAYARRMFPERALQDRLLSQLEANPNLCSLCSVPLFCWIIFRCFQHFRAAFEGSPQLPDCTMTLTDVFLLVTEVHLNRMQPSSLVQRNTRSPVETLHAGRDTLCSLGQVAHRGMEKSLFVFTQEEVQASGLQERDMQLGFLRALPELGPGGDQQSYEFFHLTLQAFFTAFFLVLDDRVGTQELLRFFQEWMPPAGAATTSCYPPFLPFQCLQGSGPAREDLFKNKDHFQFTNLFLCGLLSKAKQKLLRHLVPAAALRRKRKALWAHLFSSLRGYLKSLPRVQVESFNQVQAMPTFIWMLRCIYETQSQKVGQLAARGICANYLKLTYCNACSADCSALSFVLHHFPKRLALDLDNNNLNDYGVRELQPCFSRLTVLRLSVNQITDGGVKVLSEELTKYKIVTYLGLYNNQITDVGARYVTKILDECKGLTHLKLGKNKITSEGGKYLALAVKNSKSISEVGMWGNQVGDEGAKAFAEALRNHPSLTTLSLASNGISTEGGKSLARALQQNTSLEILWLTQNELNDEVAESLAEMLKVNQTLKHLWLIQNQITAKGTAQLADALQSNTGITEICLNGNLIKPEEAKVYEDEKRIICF

[7] = biological target: Tumor necrosis factor (Homo sapiens, UniProt P01375); test: TNFa-triggered NF-kB activation inhibitors, SAR follow-up, cell-based, revised (AID 2337); format: functional
Tumor necrosis factor, sequence (P01375 whole entry): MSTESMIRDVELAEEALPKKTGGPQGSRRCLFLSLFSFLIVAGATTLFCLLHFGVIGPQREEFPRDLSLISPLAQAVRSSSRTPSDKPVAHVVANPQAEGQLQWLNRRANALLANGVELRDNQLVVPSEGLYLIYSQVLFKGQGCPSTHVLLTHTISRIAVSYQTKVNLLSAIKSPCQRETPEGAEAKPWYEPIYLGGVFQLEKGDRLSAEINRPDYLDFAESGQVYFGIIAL

[8] = tested on: HEK293; test: cells; settings: Homo sapiens
[9] = biological target: Nonstructural protein 1 (Influenza A virus, UniProt Q194T2); format: functional, Influenza A virus (A/California/07/2009(H1N1))
Nonstructural protein 1, sequence (Q194T2 whole entry): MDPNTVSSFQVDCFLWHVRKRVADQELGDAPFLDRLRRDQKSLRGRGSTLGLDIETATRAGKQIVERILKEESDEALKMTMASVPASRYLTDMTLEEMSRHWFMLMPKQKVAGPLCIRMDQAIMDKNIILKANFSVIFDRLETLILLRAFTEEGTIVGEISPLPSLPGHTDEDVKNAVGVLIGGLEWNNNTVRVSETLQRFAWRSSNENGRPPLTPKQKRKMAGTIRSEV

[10] = biological target: T4, Alkaline phosphatase, tissue-nonspecific isozyme (Homo sapiens, UniProt P05186); test: human TNAP enzyme inhibitors, SAR follow-up, biochemical, luminescent, dose response (AID 1056)
T4 sequence (P05186 whole entry): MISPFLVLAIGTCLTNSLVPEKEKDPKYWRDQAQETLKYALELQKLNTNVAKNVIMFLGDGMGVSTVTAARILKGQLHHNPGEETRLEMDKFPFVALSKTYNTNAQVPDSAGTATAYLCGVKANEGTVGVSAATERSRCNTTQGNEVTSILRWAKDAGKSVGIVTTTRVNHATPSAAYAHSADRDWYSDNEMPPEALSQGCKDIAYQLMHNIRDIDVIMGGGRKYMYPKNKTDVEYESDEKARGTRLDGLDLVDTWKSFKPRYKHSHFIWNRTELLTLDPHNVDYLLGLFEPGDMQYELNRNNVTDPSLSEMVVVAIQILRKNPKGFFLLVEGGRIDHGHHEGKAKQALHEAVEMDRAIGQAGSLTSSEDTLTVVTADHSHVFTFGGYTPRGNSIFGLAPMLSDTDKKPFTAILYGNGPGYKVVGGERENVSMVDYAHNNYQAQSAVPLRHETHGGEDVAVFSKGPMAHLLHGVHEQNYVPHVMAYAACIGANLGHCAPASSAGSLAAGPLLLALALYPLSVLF

[11] = biological target: Alkaline phosphatase, placental type (Homo sapiens, UniProt P05187); test: PLAP enzyme inhibitors, confirmation, biochemical, luminescence (AID 1512); format: functional
Alkaline phosphatase, placental type, sequence (P05187 whole entry): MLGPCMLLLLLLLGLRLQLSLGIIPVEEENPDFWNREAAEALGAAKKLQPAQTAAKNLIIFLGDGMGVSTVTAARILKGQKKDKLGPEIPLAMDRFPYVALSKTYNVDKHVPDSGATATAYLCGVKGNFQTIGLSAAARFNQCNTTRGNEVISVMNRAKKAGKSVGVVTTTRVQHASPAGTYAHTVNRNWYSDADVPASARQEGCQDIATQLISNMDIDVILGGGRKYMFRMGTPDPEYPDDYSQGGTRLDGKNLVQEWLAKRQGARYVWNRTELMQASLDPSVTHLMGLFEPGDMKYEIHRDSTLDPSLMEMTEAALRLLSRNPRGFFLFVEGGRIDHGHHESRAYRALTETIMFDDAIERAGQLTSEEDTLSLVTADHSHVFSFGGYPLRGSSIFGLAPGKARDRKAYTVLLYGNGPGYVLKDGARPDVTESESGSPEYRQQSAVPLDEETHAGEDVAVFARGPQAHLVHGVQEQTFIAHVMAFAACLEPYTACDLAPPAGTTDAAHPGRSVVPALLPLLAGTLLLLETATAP

[12] = Luminescence Cell-Based Dose Retest to Confirm Inhibitors of Cancer Stem Cells. [Related pubchem assays (depositor defined):AID2717, AID2721]; format: functional; settings: Homo sapiens
[13] = tested on: Vero; test: cells; format: functional; settings: Chlorocebus sabaeus
[14] = biological target: T5, Nuclear receptor subfamily 0 group B member 1 (Homo sapiens, UniProt P51843); test: Luminescence-based cell-based high throughput dose response assay for inhibitors of the orphan nuclear receptor subfamily 0, group B, member 1 (DAX1; NR0B1). [Related pubchem assays (depositor defined):AID504766, AID504790]; format: functional
T5 sequence (P51843 whole entry): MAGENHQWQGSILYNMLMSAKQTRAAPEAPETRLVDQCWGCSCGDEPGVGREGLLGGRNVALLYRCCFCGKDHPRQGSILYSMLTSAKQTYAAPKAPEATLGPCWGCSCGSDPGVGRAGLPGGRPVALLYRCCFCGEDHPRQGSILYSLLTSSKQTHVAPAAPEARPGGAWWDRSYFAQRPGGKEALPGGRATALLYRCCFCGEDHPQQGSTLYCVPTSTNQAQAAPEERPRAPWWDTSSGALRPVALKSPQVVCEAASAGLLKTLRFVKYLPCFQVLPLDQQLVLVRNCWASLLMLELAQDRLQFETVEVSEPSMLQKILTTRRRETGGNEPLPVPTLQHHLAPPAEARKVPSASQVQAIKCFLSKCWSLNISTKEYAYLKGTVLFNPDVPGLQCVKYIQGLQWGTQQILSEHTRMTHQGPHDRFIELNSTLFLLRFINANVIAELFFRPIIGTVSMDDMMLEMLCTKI

[15] = tested on: HEK293; test: cells; format: functional, cell-based; settings: Homo sapiens
[16] = biological target: T6, Carboxy-terminal domain RNA polymerase II polypeptide A small phosphatase 1 (Homo sapiens, UniProt Q9GZU7); test: inhibitors of CTDSP1, concentration-response testing, biochemical assay, absorbance-based, actives from ultra-high-throughput screening (AID 540297); format: functional
T6 sequence (Q9GZU7 whole entry): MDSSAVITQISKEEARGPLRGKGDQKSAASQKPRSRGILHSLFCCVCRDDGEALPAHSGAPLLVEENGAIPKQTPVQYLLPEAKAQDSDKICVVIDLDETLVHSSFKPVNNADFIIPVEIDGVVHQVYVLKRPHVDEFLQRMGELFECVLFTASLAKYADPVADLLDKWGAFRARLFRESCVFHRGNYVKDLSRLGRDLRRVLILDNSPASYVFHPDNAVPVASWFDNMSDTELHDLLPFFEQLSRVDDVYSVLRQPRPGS

[17] = biological target: T7, Small ubiquitin-related modifier 1 (Homo sapiens, UniProt P63165); test: inhibitors of SUMO1 partner interactions, dose response, biochemical, FRET (AID 624383); format: functional; settings: read-out: IC50_Mean
T7 sequence (P63165 whole entry): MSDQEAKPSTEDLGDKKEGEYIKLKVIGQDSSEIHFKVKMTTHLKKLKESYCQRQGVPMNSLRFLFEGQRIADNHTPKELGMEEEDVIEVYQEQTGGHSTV

[18] = biological target: T8, Rac GTPase-activating protein 1 (Homo sapiens, UniProt Q9H0H5); test: MgcRacGAP GTPase-activating activity inhibitors, confirmation, biochemical, ADP Hunter fluorescence, primary and confirmatory (AID 624330); format: functional
T8 sequence (Q9H0H5 whole entry): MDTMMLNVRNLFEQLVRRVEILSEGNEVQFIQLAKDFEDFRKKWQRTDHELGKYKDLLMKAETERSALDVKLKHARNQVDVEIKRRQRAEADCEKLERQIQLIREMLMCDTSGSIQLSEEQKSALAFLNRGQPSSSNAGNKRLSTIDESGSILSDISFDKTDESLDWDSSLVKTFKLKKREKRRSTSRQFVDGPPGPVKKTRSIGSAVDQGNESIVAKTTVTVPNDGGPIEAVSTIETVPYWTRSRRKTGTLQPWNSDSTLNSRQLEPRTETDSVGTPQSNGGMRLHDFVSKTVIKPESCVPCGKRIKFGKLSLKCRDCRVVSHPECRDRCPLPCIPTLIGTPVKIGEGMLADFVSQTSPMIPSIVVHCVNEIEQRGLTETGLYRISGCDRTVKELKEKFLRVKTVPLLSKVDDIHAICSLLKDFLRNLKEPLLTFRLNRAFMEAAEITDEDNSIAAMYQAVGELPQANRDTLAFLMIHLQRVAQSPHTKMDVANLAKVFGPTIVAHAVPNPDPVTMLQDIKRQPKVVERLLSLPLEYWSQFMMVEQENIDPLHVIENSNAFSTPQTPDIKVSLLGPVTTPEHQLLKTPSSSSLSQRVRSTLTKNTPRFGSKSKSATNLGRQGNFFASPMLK

[19] = biological target: Albumin (Bos taurus, UniProt P02769); test: Counterscreen for inhibitors of T-cell receptor (TCR)-CD3 interaction: Fluorescence-based biochemical high throughput dose response assay to identify inhibitors of T-cell receptor (TCR)-CD3 interaction using a TAMRA-labeled BSA probe.; format: functional
Albumin, sequence (P02769 whole entry): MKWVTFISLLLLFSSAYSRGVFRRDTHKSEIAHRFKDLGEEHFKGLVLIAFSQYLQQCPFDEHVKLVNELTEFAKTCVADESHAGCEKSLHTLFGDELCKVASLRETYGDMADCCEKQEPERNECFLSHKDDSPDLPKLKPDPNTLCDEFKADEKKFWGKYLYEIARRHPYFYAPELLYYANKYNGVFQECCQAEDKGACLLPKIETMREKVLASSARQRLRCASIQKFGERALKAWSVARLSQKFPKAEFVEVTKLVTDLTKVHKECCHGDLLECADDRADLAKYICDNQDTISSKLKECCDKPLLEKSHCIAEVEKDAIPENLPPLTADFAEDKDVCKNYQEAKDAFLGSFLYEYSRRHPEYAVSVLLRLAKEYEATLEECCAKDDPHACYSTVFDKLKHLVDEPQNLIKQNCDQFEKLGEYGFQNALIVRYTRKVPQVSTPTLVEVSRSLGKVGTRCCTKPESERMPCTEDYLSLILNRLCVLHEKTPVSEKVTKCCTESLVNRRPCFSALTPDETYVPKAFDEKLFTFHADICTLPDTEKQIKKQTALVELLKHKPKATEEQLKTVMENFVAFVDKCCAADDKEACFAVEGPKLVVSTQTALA

[20] = tested on: HeLa; test: HeLa cell cytotoxicity, dose response, cytotoxicity control, 24 h, cherry-picked samples (AID 504726); format: functional, cell-based; settings: Homo sapiens;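 also: potency for cytotoxicity as loss of luminescence signal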
[21] = biological target: T7, Small ubiquitin-related modifier 1; test: inhibitors of SUMO1 peptide binding, dose response, biochemical, fluorescence polarization, uHTS hits (AID 624382); format: functional; settings: read-out: IC50_Mean
[22] = biological target: Voltage-gated inwardly rectifying potassium channel KCNH2 (Homo sapiens, UniProt Q12809); settings: Potency;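 also: confirmatory quantitative high-throughput screen measuring inhibition of hERG channel activity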
Voltage-gated inwardly rectifying potassium channel KCNH2, sequence (Q12809 whole entry): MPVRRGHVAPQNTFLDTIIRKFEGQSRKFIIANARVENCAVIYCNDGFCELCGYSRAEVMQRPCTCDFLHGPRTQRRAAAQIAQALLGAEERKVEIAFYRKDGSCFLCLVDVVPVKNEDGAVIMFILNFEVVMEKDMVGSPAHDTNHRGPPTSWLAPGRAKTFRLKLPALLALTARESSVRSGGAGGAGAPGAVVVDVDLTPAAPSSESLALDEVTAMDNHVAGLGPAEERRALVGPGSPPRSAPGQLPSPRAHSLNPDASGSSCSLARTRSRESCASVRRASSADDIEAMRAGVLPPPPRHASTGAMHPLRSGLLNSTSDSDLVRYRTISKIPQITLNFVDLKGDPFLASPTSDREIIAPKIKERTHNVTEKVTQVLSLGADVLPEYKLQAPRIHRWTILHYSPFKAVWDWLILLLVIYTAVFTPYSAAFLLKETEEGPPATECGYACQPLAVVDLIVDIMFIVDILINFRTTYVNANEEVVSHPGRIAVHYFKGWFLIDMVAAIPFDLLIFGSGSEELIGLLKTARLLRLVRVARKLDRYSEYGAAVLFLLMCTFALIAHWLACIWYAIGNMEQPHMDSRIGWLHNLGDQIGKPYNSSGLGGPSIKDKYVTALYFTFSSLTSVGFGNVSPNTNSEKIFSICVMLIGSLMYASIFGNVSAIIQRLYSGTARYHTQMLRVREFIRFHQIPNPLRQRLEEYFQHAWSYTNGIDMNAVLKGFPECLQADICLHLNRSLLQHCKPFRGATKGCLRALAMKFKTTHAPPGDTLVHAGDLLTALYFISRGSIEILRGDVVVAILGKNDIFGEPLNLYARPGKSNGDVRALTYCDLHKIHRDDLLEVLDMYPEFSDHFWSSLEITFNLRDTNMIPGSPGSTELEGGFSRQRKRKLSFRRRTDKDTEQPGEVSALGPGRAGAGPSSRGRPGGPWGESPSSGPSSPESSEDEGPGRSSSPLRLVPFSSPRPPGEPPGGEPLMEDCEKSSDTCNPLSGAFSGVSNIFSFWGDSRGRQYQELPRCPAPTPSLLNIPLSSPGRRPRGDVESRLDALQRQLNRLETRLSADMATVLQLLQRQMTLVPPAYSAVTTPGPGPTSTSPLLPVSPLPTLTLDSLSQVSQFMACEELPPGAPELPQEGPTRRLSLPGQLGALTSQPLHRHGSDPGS

DNA dC->dU-editing enzyme APOBEC-3G, sequence (Q9HC16 whole entry): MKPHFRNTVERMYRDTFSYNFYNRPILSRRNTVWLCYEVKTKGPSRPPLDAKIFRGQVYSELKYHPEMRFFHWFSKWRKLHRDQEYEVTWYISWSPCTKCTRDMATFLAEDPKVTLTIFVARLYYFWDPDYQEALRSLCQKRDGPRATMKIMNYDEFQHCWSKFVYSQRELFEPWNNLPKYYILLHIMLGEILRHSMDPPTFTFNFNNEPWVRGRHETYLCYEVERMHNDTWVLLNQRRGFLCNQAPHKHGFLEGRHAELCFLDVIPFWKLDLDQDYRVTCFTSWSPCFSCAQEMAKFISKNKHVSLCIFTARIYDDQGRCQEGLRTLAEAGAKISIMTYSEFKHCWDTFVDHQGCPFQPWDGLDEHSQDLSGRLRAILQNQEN

## COC(=O)C1=C(C)N(Cc2ccccc2)C(=NCC(C)C)N[C@H]1c1ccccc1
[1]
  IC50: 4.17 µM (active)
[2]
  IC50: 4.65 µM (active)
[3]
  EC50: 42.7 µM (active)
[4]
  IC50: 1.78 µM (active)
[5]
  EC50: > 300 µM (not active)

## CCOc1ccc(NC(=O)c2ccc(CCN3CCc4ccccc4C3)cc2)cc1
[6]
  IC50: > 20 µM (inactive)
[7]
  IC50: > 20 µM (inactive)
[8]
  IC50: > 20 µM (inactive)

## CN1CCN(C2CCN(c3ccc(Nc4nnc(Cl)c(Nc5ccccc5S(C)(=O)=O)n4)c(OC(CF)CF)c3)CC2)CC1
[9]
  IC50: > 100 µM (active)

## CCOC(=O)C1=C(C)N=C(C)/C(=C(/O)OC)C1c1cccc([N+](=O)[O-])c1 (stereo not given)
[4]
  IC50: 1.47 µM (active)

## CN(C)c1ccc(NC(=O)c2ccc(CN3CCc4ccccc4C3)cc2)cc1
[6]
  IC50: 1.61 µM (active)
[7]
  IC50: 1.83 µM (active)
[8]
  IC50: > 20 µM (inactive)

## Cn1c(NCC(=O)c2ccc(O)c(O)c2)nc2ccccc21
[10]
  IC50: 8.58 µM (active)
[11]
  IC50: 7.9 µM (active)

## O=C(Nc1ccc(Cl)cc1)c1cc2c(cc1O)[nH]c1ccccc12
[12]
  AC50: 0.198 µM (active)
[13]
  CC50: 10.9 µM (active)

## O=C(NNc1nc2c(F)cccc2s1)c1ccccc1
[14]
  IC50: > 67.5 µM (inactive)
[15]
  IC50: > 67.5 µM (inactive)

## O=C(OCc1cc(=O)n2c(n1)sc1ccccc12)c1ccc(O)cc1
[16]
  IC50: 5.75 µM (active)

## CCOc1ccc(Nc2ccc(N)c(S(=O)(=O)O)c2)cc1
[17]
  IC50: 11.7 µM (active)
[18]
  IC50: 68.9 µM (active)
[19]
  IC50: > 94.1 µM (inactive)
[20]
  AC50: 299 µM (active)
[16]
  IC50: 3.21 µM (active)
[21]
  IC50: > 66.6 µM (inactive)

## CCCCOC(=O)c1ccccc1C(=O)OCc1ccccc1
[22]
  AC50: 25.1 µM (inconclusive)

## CCCCN1C(=O)/C(=N\Nc2ccccc2)c2ccccc21
[10]
  IC50: 72.3 µM (active)
[11]
  IC50: 18.7 µM (active)

## N#Cc1c(SCC(=O)Nc2cccc(F)c2)sc2c(O)cc(=O)[nH]c12
[16]
  IC50: 7.26 µM (active)

Reference: ChEMBL document CHEMBL1201862, “PubChem BioAssay data set” (2004)
